According to patent publication US9145354B2, “Pharmaceutical compounds” (priority 2011, dated 2015):
Read-outs that look alike come from different tables or passages of the source.

Experiments:
full length NS3/4a = full length NS3/4a (Hepatitis C virus genotype 1b (isolate BK) (HCV), UniProt P26663); assay: NS3 Protease Assay (Example A), FRET-based; type: biochemical
In short: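 Initial rates were taken from fluorescence progress curves over 30 min at room temperature, and IC50 was fitted across replicates. In-house full-length NS3/4a cleaved a FRET peptide (5-FAMsp/QXL520) from the NS4A/B site. Medium: 50 mM Tris pH8, 20 mM DTT, 1% CHAPS, 10% glycerol, 5% DMSO.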

[1] = system: HCV subgenomic replicon in Huh-7 cells; assay: Replicon Assay (Example B), luciferase readout EC50; type: cell-based; conditions: Hepatitis C virus
Method: The activities of compounds of the invention against HCV in a cellular environment were analysed using a replicon assay as described below.
(§1) Thus, Huh-7 cells persistently infected with an HCV-RNA construct (Bartenschlager, R. Hepatitis C replicons: potential role for drug development. Nature Rev. Drug Discov. 1, 911-916 (2002)) comprising: 5′ and 3′ non-translated regions (NTR); the non-structural genes NS3 to NS5b; as well as the G418 drug resistance gene, neomycin, (for selection of cells carrying HCV replicon RNA) fused to the firefly Luciferase reporter gene (pFKI3889Iuc-ubi-neo/NS3-3′/ET) were used to determine the cell based antiviral activity of compounds using luciferase activity as an indirect readout of HCV RNA load. In this assay […] huh-7 cells persistently infected with the HCV subgenomic replicon construct above were plated/well in a 96 well tissue culture plate. The cells were allowed to attach overnight in DMEM medium supplemented with 10% FBS 1% NEAA, and 250 μg/ml gentamicin. The following day the medium was replaced with 200 μl/well of fresh medium as described above lacking gentamicin. Semilog dilutions of compounds in medium were then added to triplicate wells (non-edge) of the cultured cells to give a 0.1% DMSO final concentration. Plates were then incubated at 37° C. in an atmosphere of 5% CO2 and air for 72 h. […] The plate was then read at 535 nm (excitation) and 590 nm (emission) on a SpectraMax Gemini reader (Molecular Devices) to determine the number of viable cells by measuring the conversion of rezasurin (Alamar blue) to resorufin in response to mitochondrial activity. In order to determine the antiviral effect of these compounds EC50 values were determined by measuring the luciferase activity of the cells. Alamar blue solution was removed from the wells and replaced with 100 μl/well of medium along with 100 μl/well of Bright-Glo reagent and incubated at room temperature for 5 minutes before transferring 100 μl/well to a white bottom 96 well plate to read in a luminometer as described in the Bright-Glo Luciferase Assay System protocol (promega).

[2] = Replicon Assay (Example B), Alamar Blue cytotoxicity CC50; type: cell-based; conditions: human, lower value of the cell pair
Source text: as §1

[3] = HCV NS3 protease assay, full length NS3/4a, read-out: Assay A IC50 (μM) average
[4] = read-out: IC50 against the protease activity of the full length NS3/4a
[5] = Huh-7, replicon assay, luciferase readout, upper value of the cell pair, read-out: Assay B EC50

Sequence of full length NS3/4a (P26663 1027-1657): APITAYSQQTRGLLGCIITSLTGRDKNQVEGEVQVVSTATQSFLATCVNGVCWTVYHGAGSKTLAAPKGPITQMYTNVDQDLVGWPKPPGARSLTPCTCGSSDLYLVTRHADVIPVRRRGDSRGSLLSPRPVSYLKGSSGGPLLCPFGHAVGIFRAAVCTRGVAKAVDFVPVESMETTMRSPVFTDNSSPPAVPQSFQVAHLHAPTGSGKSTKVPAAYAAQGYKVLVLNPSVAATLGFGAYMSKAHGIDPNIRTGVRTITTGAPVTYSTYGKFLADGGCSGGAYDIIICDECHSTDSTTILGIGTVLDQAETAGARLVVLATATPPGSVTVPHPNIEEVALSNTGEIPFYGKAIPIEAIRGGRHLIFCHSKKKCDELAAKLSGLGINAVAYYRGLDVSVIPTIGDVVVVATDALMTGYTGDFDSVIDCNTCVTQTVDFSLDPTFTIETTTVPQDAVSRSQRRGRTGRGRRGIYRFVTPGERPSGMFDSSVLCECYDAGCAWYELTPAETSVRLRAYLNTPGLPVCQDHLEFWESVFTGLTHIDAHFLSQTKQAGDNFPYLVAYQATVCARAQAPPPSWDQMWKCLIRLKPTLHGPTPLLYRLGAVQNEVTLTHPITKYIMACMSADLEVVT

Structure (SMILES) | IC50 (full length NS3/4a; [3]) [µM] | IC50 (full length NS3/4a; [4]) [µM] | EC50 [1, 5] [nM] | CC50 at 72 h [2] [nM] | EC50 ([1]; Huh-7, pre-determined EC50 used to set concentrations in combination studies, read-out: EC50 (replicon)) [nM] | inhibition at 0.01 µM (full length NS3/4a; @ 0.01 uM) [%] | inhibition at 0.1 µM (full length NS3/4a; @ 0.1 uM) [%] | inhibition at 0.03 µM (full length NS3/4a; @ 0.03 uM) [%]
CC[C@@H](N)c1ccc(Cl)c(C(=O)c2ccc(C#N)cc2)c1F [Example 9, 4-({3-[(1R)-1-aminopropyl]-6-chloro-2-fluorophenyl}carbonyl)-benzonitrile] | 0.076 | < 1 | > 3000 | > 3000 | – | – | – | –
N[C@@H](c1ccc(Cl)c(C(=O)c2ccccc2)c1F)C1CC1 [Example 11, (R)-(3-benzoyl-4-chloro-2-fluorophenyl)-(cyclopropyl)-methanamine] | 0.13 | < 1 | > 3000 | > 3000 | – | – | – | –
COc1cc(C(=O)c2c(Cl)ccc([C@H](N)C3CC3)c2F)ccc1C#N [Example 69, 4-({3-[(R)-amino(cyclopropyl)methyl]-6-chloro-2-fluorophenyl}carbonyl)-2-methoxybenzonitrile] | 0.052 | – | 33 | > 1000 | – | – | – | –
CC[C@@H](N[C@@H](C)CC(N)=O)c1ccc(Cl)c(C(=O)c2ccc(N)nc2)c1F [Example 81, (3S)-3-{[(1R)-1-{3-[(6-aminopyridin-3-yl)carbonyl]-4-chloro-2-fluorophenyl}propyl]-amino}butanamide] | 0.22 | – | 18 | > 3000 | 20 | – | – | –
CC[C@@H](N[C@@H](C)CC(=O)NCCN)c1ccc(Cl)c(C(=O)c2ccccc2)c1F [Example 88, (3S)-N-(2-aminoethyl)-3-{[(1R)-1-(3-benzoyl-4-chloro-2-fluorophenyl)propyl]-amino}butanamide] | – | – | 45 | > 3000 | – | 52 | – | –
CC[C@@H](N[C@@H](C)CC(N)=O)c1ccc(Cl)c(C(=O)c2ccc(F)c(F)c2)c1F [Example 90, (3S)-3-{[(1R)-1-{4-chloro-3-[(3,4-difluorophenyl)carbonyl]-2-fluorophenyl}propyl]amino}-butanamide] | 0.13 | – | 380 | > 3000 | – | – | – | –
CC[C@@H](N[C@@H](C)CC(N)=O)c1ccc(Cl)c(C(=O)c2ccc(C#N)cc2)c1F [Example 91, (3S)-3-{[(1R)-1-{4-chloro-3-[(4-cyanophenyl)carbonyl]-2-fluorophenyl}propyl]amino}-butanamide] | 0.066 | – | 1.2 | > 10000 | – | – | – | –
CC[C@@H](N[C@@H](C)CC(N)=O)c1ccc(Cl)c(C(=O)c2cccnc2)c1F [Example 93, (3S)-3-{[(1R)-1-{4-chloro-2-fluoro-3-[(pyridin-3-yl)carbonyl]phenyl}propyl]-amino}butanamide] | 0.14 | – | 510 | > 3000 | – | – | – | –
CC[C@@H](N[C@@H](C)CC(N)=O)c1ccc(Cl)c(C(=O)c2cccc(F)c2)c1F [Example 95, (3S)-3-{[(1R)-1-{4-chloro-2-fluoro-3-[(3-fluorophenyl)-carbonyl]-phenyl}propyl]-amino}-butanamide] | 0.085 | – | 41 | > 3000 | – | – | – | –
CC[C@@H](N[C@@H](C)CC(N)=O)c1ccc(Cl)c(C(=O)c2ccc(F)cc2)c1F [Example 97, (3S)-3-{[(1R)-1-{4-chloro-2-fluoro-3-[(4-fluorophenyl)-carbonyl]-phenyl}propyl]-amino}-butanamide] | 0.047 | – | 19 | > 3000 | – | – | – | –
CC[C@@H](N[C@@H](C)CC(N)=O)c1ccc(Cl)c(C(=O)c2cccc(C#N)c2)c1F [Example 101, (3S)-3-{[(1R)-1-{4-chloro-3-[(3-cyanophenyl)carbonyl]-2-fluorophenyl}propyl]amino}-butanamide] | 0.11 | < 1 | 160 | > 3000 | – | – | – | –
C[C@@H](CC(N)=O)N[C@@H](c1ccc(Cl)c(C(=O)c2ccccc2)c1F)C1CC1 [Example 103, (3S)-3-{[(R)-(3-benzoyl-4-chloro-2-fluorophenyl)-(cyclopropyl)-methyl]-amino}-butanamide] | 0.077 | < 1 | 5.8 | > 3000 | – | – | – | –
CC[C@@H](N[C@@H](C)CC(N)=O)c1ccc(Cl)c(C(=O)c2ccccn2)c1F [Example 104, (3S)-3-{[(1R)-1-{4-chloro-2-fluoro-3-[(pyridin-2-yl)carbonyl]phenyl}-propyl]amino}butanamide] | 0.24 | < 1 | 390 | > 3000 | – | – | – | –
CC[C@@H](N[C@@H](C)CC(N)=O)c1ccc(Cl)c(C(=O)c2ccncc2)c1F [Example 106, (3S)-3-{[(1R)-1-{4-chloro-2-fluoro-3-[(pyridin-4-yl)carbonyl]phenyl}-propyl]amino}butanamide] | 0.11 | < 1 | 57 | > 3000 | – | – | – | –
CC[C@@H](N[C@@H](C)CC(N)=O)c1ccc(Cl)c(C(=O)c2ccns2)c1F [Example 108, (3S)-3-{[(1R)-1-{4-chloro-2-fluoro-3-[(1,2-thiazol-5-yl)carbonyl]phenyl}propyl]-amino}butanamide] | 0.07 | – | 270 | > 3000 | – | – | – | –
CC[C@@H](N[C@@H](C)CC(N)=O)c1ccc(Cl)c(C(=O)c2cc(C)on2)c1F [Example 110, (3S)-3-{[(1R)-1-{4-chloro-2-fluoro-3-[(5-methyl-1,2-oxazol-3-yl)carbonyl]-phenyl}-propyl]amino}-butanamide] | 0.17 | – | 510 | > 3000 | – | – | – | –
CC[C@@H](NC(C)(C)CC(N)=O)c1ccc(Cl)c(C(=O)c2cccnc2)c1F [Example 113, 3-{[(1R)-1-{4-Chloro-2-fluoro-3-[(pyridin-3-yl)carbonyl]phenyl}propyl]amino}-3-methylbutanamide] | 0.093 | – | 180 | > 3000 | – | – | – | –
[2H]C([2H])([2H])C([2H])([2H])[C@@H](N[C@@H](C)CC(N)=O)c1ccc(Cl)c(C(=O)c2ccccc2)c1F [Example 115, (3S)-3-{[(1R)-1-(3-benzoyl-4-chloro-2-fluorophenyl)(2,2,3,3,3-D)propyl]amino}-butanamide] | – | – | 4.1 | > 3000 | – | – | 59 | –
CC[C@@H](N[C@@H](C)CC(N)=O)c1ccc(Cl)c(C(=O)c2ccc[n+]([O-])c2)c1F [Example 116, (S)-3-{(R)-1-[4-Chloro-2-fluoro-3-(1-oxy-pyridine-3-carbonyl)-phenyl]-propylamino}-butyramide] | 0.81 | – | > 3000 | > 3000 | – | – | – | –
C[C@@H](CC(N)=O)N[C@@H](c1ccc(Cl)c(C(=O)c2cccnc2)c1F)C1CC1 [Example 119, (3S)-3-{[(R)-{4-chloro-2-fluoro-3-[(pyridin-3-yl)carbonyl]phenyl} (cyclopropyl)methyl]amino}-butanamide] | 0.12 | < 1 | 71 | > 3000 | – | – | – | –
C[C@@H](CC(N)=O)N[C@@H](c1ccc(Cl)c(C(=O)c2ccc(F)cc2)c1F)C1CC1 [Example 121, (3S)-3-{[(R)-{4-chloro-2-fluoro-3-[(4-fluorophenyl)-carbonyl]phenyl}(cyclopropyl)methyl]amino}butanamide] | – | – | 9.9 | > 3000 | – | – | – | 38
CC[C@@H](N[C@@H](C)C1(C(N)=O)CC1)c1ccc(Cl)c(C(=O)c2cccnc2)c1F [Example 132, 1-[(1S)-1-{[(1R)-1-{4-chloro-2-fluoro-3-[(pyridin-3-yl)carbonyl]phenyl}propyl]amino}ethyl]cyclopropane-1-carboxamide] | 0.14 | – | 25 | > 3000 | – | – | – | –
CC[C@@H](N[C@@H](C)CC(N)=O)c1ccc(Cl)c(C(=O)c2ccc(C#N)nc2)c1F [Example 133, (3S)-3-{[(1R)-1-{4-chloro-3-[(6-cyanopyridin-3-yl)carbonyl]-2-fluorophenyl}propyl]-amino}butanamide] | 0.12 | – | > 3000 | > 3000 | – | – | – | –
C[C@@H](CC(N)=O)N[C@@H](c1ccc(Cl)c(C(=O)c2ccncc2)c1F)C1CC1 [Example 134, (3S)-3-{[(R)-{4-chloro-2-fluoro-3-[(pyridin-4-yl)carbonyl]phenyl}-(cyclopropyl)methyl]-amino}butanamide] | 0.085 | – | 52 | > 3000 | – | – | – | –
